Measurements published in patent publication US7064206B1 (University of Kentucky Research Foundation, priority 2003, dated 2006).

Assays:
[1] = Non-enzymatic decomposition of the glycinate ester prodrug at physiological pH; assay type: physicochemical; conditions: pH of 7 or above
Excerpt: 4 arose by a competitive intermolecular reaction to the lactam intermediate and reacted to release both 5 and 6.

[2] = target: T1, topoisomerase I cleavage complexes (Homo sapiens, UniProt P11387); conditions: cell-free; vs camptothecin or SN-38; cited from earlier work
T1 sequence (P11387 1-765): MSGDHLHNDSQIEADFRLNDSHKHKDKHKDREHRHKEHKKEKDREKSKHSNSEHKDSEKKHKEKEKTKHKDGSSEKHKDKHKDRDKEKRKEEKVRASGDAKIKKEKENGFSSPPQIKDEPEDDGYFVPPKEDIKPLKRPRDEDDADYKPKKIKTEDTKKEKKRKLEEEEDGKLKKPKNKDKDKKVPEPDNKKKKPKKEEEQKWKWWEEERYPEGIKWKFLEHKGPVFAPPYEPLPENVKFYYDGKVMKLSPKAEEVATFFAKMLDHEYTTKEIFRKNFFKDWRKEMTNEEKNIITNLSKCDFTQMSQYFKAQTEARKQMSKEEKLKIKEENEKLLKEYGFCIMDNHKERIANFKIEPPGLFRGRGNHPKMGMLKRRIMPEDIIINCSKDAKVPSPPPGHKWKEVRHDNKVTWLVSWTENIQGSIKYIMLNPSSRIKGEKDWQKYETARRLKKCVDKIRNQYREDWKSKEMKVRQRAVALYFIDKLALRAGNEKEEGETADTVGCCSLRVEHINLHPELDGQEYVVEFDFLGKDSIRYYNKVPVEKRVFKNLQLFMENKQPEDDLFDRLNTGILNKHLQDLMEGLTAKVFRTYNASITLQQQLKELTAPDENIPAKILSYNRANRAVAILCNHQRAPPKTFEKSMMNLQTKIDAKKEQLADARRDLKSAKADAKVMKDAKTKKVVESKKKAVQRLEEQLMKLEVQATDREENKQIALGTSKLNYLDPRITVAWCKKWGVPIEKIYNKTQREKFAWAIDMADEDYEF

[3] = human blood, cited from earlier work
[4] = system: human glioma; conditions: murine model; cited from earlier work
[5] = target: human serum albumin (HSA) (Homo sapiens, UniProt P02768); conditions: cited from earlier work
human serum albumin (HSA), sequence (P02768 25-609): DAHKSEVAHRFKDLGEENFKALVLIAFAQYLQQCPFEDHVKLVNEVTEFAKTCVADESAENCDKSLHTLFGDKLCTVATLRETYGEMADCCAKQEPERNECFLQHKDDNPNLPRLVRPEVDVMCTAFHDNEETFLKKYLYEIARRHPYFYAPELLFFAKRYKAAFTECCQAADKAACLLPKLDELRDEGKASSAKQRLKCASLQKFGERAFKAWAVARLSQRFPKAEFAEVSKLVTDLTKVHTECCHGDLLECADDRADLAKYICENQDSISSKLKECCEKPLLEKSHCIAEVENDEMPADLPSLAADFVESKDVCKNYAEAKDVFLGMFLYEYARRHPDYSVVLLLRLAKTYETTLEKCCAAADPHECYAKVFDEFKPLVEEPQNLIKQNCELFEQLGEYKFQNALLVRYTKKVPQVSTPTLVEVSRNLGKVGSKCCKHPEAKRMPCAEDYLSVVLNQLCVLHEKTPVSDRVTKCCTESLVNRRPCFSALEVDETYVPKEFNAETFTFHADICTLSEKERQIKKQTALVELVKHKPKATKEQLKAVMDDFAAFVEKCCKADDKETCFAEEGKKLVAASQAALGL

[6] = Stability of free and liposomal prodrug in whole blood

With CC[C@@]1(OC(=O)CN)C(=O)OCc2c1cc1n(c2=O)Cc2c-1nc1ccc(O)cc1c2[Si](C)(C)C(C)(C)C [DB-67 20(S)-glycinate ester] the “decomposition at physiological pH” value [1] was “rapid and convenient non-enzymatic decomposition process that releases active DB-67”.
For CC[C@@]1(O)C(=O)OCc2c1cc1n(c2=O)Cc2c-1nc1ccc(O)cc1c2[Si](C)(C)C(C)(C)C [DB-67, 7-t-butyldimethylsilyl-10-hydroxycamptothecin], the “stability of topoisomerase I cleavage complexes” value [2] is listed as “more stable topoisomerase I cleavage complexes than camptothecin or SN-38”, the “% lactone at equilibrium” value [3] is listed as 30% and the t1/2 ([3]; lactone hydrolysis) is listed as 130 min. The “activity against human glioma” value [4] was “display activity against human glioma” and the “association of carboxylate form with the high affinity carboxylate binding pocket on HSA” value [5] was “blocks the associations”.
In the case of CCc1c2c(nc3ccc(O)cc13)-c1cc3c(c(=O)n1C2)COC(=O)[C@]3(O)CC [SN-38], the “association of carboxylate form with the high affinity carboxylate binding pocket on HSA” value [5] is listed as “block SN-38 from associating”.
For Camptothecin, the “affinity of lactone form for HSA” value ([5]; lactone form) is listed as “moderate affinity”.
In the case of DB-67 4-aminobutanoate ester, the “decomposition of free prodrug” value [6] is reported as “extensive”.
